# pIC50: −log10 of the molar value.
# Target: T1, hNav1.8 (Homo sapiens, UniProt Q9Y5Y9)
# T1 construct: expressed in transfected cells; host or cells: CHO
# Assay: Nav1.8 manual patch clamp test
# Assay type: cell-based
# Settings: CHO cells stably expressing human Nav1.8; whole-cell patch clamp, half-inactivated state; read-out: Inhibitory activity (IC50) against hNav1.8
# Protocol: Nav1.8 Manual Patch Clamp Test
# CHO cell lines stably expressing human Nav1.8 were cultured in a Ham's F-12 medium containing 10% fetal bovine serum, 10 μg/mL Blasticidin, 200 μg/mL Hygromycin B and 100 μg/mL Zeocin. The cells were cultured at 37° C. with a carbon dioxide concentration of 5%. The old medium was removed, and the cells were rinsed once with PBS. Then, 1 mL of 0.25%-Trypsin-EDTA solution was added, and the cells were incubated at 37° C. for approximately 1.5 min. Once the cells detached from the bottom of the dish, complete medium pre-warmed to 37° C. was added. The cell suspension was gently triturated with a pipette to dissociate the clumped cells. The cell suspension was transferred to a sterile centrifuge tube and centrifuged at 1000 rpm for 5 min to collect the cells. The cells were seeded into 6 cm cell culture dishes at a density of 2.5×10^5 cells per cell culture dish (final volume: 5 mL) for expansion or maintenance culture. To maintain the electrophysiological activity of the cells, the cell density should not exceed 80%. Before patch clamp testing, the cells were dissociated with 0.25%-Trypsin-EDTA. 6.5×10^3 cells were plated onto coverslips and cultured in 24-well plates (final volume: […]) for 18 hours before detection.
# The compound was dissolved in dimethyl sulfoxide (DMSO) and prepared into a 30 mM DMSO stock solution. The stock solution was diluted with the extracellular fluid (140 mM NaCl, 3.5 mM KCl, 1 mM MgCl2·6H2O, 2 mM CaCl2·2H2O, 10 mM D-Glucose, 10 mM HEPES and 1.25 mM NaH2PO4·2H2O; adjusted to pH 7.4 with NaOH) to the test concentration, and the final DMSO concentration of all test samples was 0.1%.
# (3) Electrophysiological Test
# First, the recording electrodes were pulled from capillary glass tubes by using a microelectrode puller. Then, the electrodes were filled with the intracellular fluid (50 mM CsCl, 10 mM NaCl, 10 mM HEPES, 60 mM CsF and 20 mM EGTA; adjusted to pH 7.2 with CsOH) and mounted onto the microelectrode holder. Under an inverted microscope, the microelectrode manipulator was used to immerse the electrodes into the extracellular fluid, and the pipette resistance (Rpip) was recorded. The electrodes were slowly brought into contact with the cell surface, and negative pressure suction was applied to form a […]. At this point, fast capacitance compensation was performed, and negative pressure was continuously applied to break the cell membrane, forming a whole-cell recording mode. Finally, slow capacitance compensation was performed, and experimental parameters such as series resistance (Rs) were recorded. No electric leakage compensation was applied. When the Nav1.8 current in whole-cell recording was stable, drug administration was initiated, with each drug concentration for approximately 5 min (or until the current was stable). The coverslips spread with the cells were placed in a recording chamber under the inverted microscope. The blank control extracellular fluid and the test compound working solution were perfused through the recording chamber via the gravity-driven perfusion method, thereby acting on the cells, and a peristaltic pump was used to facilitate liquid exchange. The current recorded from cells in compound-free extracellular fluid was used as the control group. All electrophysiological experiments were conducted at room temperature. The inhibition rate of compounds on Nav1.8 was determined by calculating the relative percentage of peak currents generated before and after the cells were treated with the compounds.
# The voltage stimulation protocol for whole-cell patch clamp recording of Nav1.8 sodium currents was described as follows. When the whole-cell sealing was formed, the cells were clamped at a voltage of −120 mV. First, the voltage was stepped from −110 mV to −30 mV in 10 mV increments and maintained for 5 s, followed by a depolarizing pulse to 0 mV to obtain a half-inactivation voltage (Vhalf). […]
# T1 sequence (Q9Y5Y9 whole entry): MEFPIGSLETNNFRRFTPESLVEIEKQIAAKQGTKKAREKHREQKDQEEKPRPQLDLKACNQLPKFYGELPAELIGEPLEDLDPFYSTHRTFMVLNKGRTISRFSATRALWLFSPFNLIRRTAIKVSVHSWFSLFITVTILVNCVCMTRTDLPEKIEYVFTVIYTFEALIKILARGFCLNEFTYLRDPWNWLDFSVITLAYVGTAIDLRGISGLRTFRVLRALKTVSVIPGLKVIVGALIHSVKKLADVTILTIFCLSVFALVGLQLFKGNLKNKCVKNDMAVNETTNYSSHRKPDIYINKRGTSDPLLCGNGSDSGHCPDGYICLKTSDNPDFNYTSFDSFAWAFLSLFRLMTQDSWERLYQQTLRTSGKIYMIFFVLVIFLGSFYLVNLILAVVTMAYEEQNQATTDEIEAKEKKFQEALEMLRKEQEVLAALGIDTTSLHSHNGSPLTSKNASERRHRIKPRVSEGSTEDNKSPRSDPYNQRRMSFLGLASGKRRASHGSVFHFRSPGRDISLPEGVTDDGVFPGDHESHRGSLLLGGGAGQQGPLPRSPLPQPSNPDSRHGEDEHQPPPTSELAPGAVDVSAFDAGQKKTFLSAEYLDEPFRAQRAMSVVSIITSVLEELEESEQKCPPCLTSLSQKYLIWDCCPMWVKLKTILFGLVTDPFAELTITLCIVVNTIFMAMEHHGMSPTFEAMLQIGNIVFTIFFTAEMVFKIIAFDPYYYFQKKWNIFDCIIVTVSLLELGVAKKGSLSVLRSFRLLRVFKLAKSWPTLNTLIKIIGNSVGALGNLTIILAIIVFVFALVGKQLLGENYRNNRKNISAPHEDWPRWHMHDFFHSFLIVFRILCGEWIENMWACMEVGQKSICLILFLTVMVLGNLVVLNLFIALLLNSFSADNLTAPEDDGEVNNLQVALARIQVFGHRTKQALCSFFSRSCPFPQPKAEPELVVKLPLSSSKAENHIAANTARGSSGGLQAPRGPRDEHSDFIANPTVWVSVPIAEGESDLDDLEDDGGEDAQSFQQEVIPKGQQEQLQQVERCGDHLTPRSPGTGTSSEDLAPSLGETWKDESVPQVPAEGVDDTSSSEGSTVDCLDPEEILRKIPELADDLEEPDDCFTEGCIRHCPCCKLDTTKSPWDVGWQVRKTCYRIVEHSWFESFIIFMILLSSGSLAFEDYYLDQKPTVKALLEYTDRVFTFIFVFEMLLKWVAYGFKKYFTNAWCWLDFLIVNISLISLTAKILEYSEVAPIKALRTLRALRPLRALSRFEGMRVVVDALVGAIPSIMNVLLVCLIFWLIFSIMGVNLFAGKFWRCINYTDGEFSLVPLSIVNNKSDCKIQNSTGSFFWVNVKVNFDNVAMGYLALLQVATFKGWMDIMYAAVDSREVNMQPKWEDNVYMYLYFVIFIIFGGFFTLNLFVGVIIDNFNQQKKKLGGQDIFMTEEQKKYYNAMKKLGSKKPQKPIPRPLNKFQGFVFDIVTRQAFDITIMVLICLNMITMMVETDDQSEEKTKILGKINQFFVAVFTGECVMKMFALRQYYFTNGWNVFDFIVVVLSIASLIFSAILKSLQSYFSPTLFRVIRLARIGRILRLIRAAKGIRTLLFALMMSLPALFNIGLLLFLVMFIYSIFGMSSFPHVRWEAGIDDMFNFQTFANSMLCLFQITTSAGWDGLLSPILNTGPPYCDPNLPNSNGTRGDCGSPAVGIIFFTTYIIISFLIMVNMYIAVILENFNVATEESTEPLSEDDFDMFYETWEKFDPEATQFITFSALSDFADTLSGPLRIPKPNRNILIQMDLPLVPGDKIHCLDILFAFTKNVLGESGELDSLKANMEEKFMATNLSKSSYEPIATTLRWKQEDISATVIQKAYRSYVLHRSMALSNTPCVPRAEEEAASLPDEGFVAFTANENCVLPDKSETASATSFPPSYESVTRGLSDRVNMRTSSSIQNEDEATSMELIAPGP
row,SMILES,pIC50
1,COc1c(C2C(C(=O)Nc3ccnc(C(N)=O)c3)SC(C)(C(F)(F)F)C2C)ccc(F)c1F (stereo not shown),> 10.00
2,COc1c([C@H]2[C@H](C(=O)Nc3ccc(F)c(S(C)(=N)=O)c3)S[C@@](C)(C(F)(F)F)[C@H]2C)ccc(F)c1F (stereo partly shown),> 10.00
3,COc1c(C2C(C(=O)Nc3ccnc(OCC(O)CO)c3)SC(C)(C(F)(F)F)C2C)ccc(F)c1F (mixture of isomers) [Mixture of compounds 33-1a and 33-1b],> 9.00
4,COc1c([C@H]2[C@H](C(=O)Nc3ccc[n+]([O-])c3)S[C@@](C)(C(F)(F)F)[C@H]2C)ccc(F)c1F (racemic) [Mixture of compounds 20-1a and 20-1b],> 10.00
5,"COc1c(C2C(C(=O)Nc3ccnc(C(N)=O)c3)SC(C)(C(F)(F)F)C2C)ccc(F)c1F (single isomer, unassigned) [Compound 1-2P1]",> 10.00
6,"COc1c(C2C(C(=O)Nc3ccnc(C(N)=O)c3)SC(C)(C(F)(F)F)C2C)ccc(F)c1F (single isomer, unassigned) [Compound 1-2P2]",> 8.00
7,"COc1c(C2CC(C)(C(F)(F)F)SC2C(=O)Nc2cccc(C(N)=O)c2)ccc(F)c1F (single isomer, unassigned) [Compound 32-1P1]",> 9.00
8,"COc1c(C2CC(C)(C(F)(F)F)SC2C(=O)Nc2cccc(C(N)=O)c2)ccc(F)c1F (single isomer, unassigned) [Compound 32-1P2]",> 9.00
9,"COc1c([C@@H]2C[C@](C)(C(F)(F)F)S[C@H]2C(=O)Nc2ccc(F)c(C(N)=O)c2)ccc(F)c1F (single isomer, unassigned) [Compound 70-a]",> 10.00
10,COc1c([C@H]2[C@H](C(=O)Nc3ccnc(C(N)=O)c3)S[C@@](C)(C(F)(F)F)[C@H]2C)ccc(F)c1F [Compound 1-2a],> 10.00
11,COc1c([C@H]2[C@H](C(=O)Nc3ccnc(S(N)(=O)=O)c3)S[C@@](C)(C(F)(F)F)[C@H]2C)ccc(F)c1F [Compound 5-3a],> 10.00
12,COc1c([C@H]2[C@H](C(=O)Nc3cccc(S(N)(=O)=O)c3)S[C@@](C)(C(F)(F)F)[C@H]2C)ccc(F)c1F [Compound 7-1a],> 10.00
13,COc1c([C@H]2[C@H](C(=O)Nc3ccc(F)c(S(N)(=O)=O)c3)S[C@@](C)(C(F)(F)F)[C@H]2C)ccc(F)c1F [Compound 8-1a],> 10.00
14,COc1c([C@H]2[C@H](C(=O)Nc3ccc(CO)nc3)S[C@@](C)(C(F)(F)F)[C@H]2C)ccc(F)c1F [Compound 18-2a],> 9.00
15,COc1c([C@H]2[C@H](C(=O)Nc3cnc(CO)nc3)S[C@@](C)(C(F)(F)F)[C@H]2C)ccc(F)c1F [Compound 19-2a],> 9.00
16,COc1c([C@H]2[C@H](C(=O)Nc3ccc[n+]([O-])c3)S[C@@](C)(C(F)(F)F)[C@H]2C)ccc(F)c1F [Compound 20-1a],> 9.00
17,COc1c([C@H]2[C@H](C(=O)Nc3cccc(S(C)(=O)=O)c3)S[C@@](C)(C(F)(F)F)[C@H]2C)ccc(F)c1F [Compound 22-1a],> 10.00
18,COc1c([C@H]2[C@H](C(=O)Nc3ccnc(S(C)(=O)=O)c3)S[C@@](C)(C(F)(F)F)[C@H]2C)ccc(F)c1F [Compound 25-1a],> 10.00
19,COc1c([C@H]2[C@H](C(=O)Nc3ccc(F)c(S(C)(=O)=O)c3)S[C@@](C)(C(F)(F)F)[C@H]2C)ccc(F)c1F [Compound 26-1a],> 10.00
20,COc1c([C@H]2[C@H](C(=O)Nc3cc[nH]c(=O)c3)S[C@@](C)(C(F)(F)F)[C@H]2C)ccc(F)c1F [Compound 36-2a],> 10.00
21,COc1c([C@H]2[C@H](C(=O)Nc3ccc(F)c(CO)c3)S[C@@](C)(C(F)(F)F)[C@H]2C)ccc(F)c1F [Compound 48-1a],> 9.00
22,COc1c([C@H]2[C@H](C(=O)Nc3ccnc(CO)c3)S[C@@](C)(C(F)(F)F)[C@H]2C)ccc(F)c1F [Compound 50],> 9.00

row,SMILES,pIC50
1,COc1c([C@H]2[C@H](C(=O)Nc3ccc(F)c(C(=O)O)c3)S[C@@](C)(C(F)(F)F)[C@H]2C)ccc(F)c1F [Compound 55],> 9.00
2,COc1c([C@H]2[C@H](C(=O)Nc3cccc(P(C)(C)=O)c3)S[C@@](C)(C(F)(F)F)[C@H]2C)ccc(F)c1F [Compound 57],> 9.00
3,C[C@H]1[C@@H](c2ccc(F)c3c2CCC3)[C@H](C(=O)Nc2ccc(F)c(S(N)(=O)=O)c2)S[C@@]1(C)C(F)(F)F [Compound 59-b],> 10.00
4,C[C@H]1[C@@H](c2ccc(F)c3c2CCC3)[C@H](C(=O)Nc2ccc(F)c(C(N)=O)c2)S[C@@]1(C)C(F)(F)F [Compound 61-b],> 10.00
5,C[C@H]1[C@@H](c2ccc(F)c3c2CCC3)[C@H](C(=O)Nc2ccc(F)c(S(C)(=N)=O)c2)S[C@@]1(C)C(F)(F)F (stereo partly shown) [Compound 63-b],> 10.00
6,C[C@H]1[C@@H](c2ccc(F)c3c2CCC3)[C@H](C(=O)Nc2ccc(F)c(S(C)(=O)=O)c2)S[C@@]1(C)C(F)(F)F [Compound 65-b],> 10.00
7,C[C@H]1[C@@H](c2ccc(F)c3c2CCC3)[C@H](C(=O)Nc2ccnc(P(C)(C)=O)c2)S[C@@]1(C)C(F)(F)F [Compound 68-b],> 9.00
8,COc1c([C@@H]2C[C@](C)(C(F)(F)F)S[C@H]2C(=O)Nc2ccc(F)c(S(N)(=O)=O)c2)ccc(F)c1F [Compound 72-a],> 10.00
9,COc1c([C@@H]2C[C@](C)(C(F)(F)F)S[C@H]2C(=O)Nc2ccnc(P(C)(C)=O)c2)ccc(F)c1F [Compound 74-a],> 9.00
10,COc1c(C2C(C(=O)Nc3ccnc(S(N)(=O)=O)c3)SC(C)(C(F)(F)F)C2C)ccc(F)c1F (stereo not shown) [Mixture of compounds 5-3a and 5-3b],> 9.00
11,COc1c(C2C(C(=O)Nc3ccc(CO)nc3)SC(C)(C(F)(F)F)C2C)ccc(F)c1F (stereo not shown) [Mixture of compounds 18-2a and 18-2b],> 9.00
12,COc1c(C2C(C(=O)Nc3cnc(CO)nc3)SC(C)(C(F)(F)F)C2C)ccc(F)c1F (stereo not shown) [Mixture of compounds 19-2a and 19-2b],> 9.00
13,COc1c(C2C(C(=O)Nc3ccnc(S(C)(=O)=O)c3)SC(C)(C(F)(F)F)C2C)ccc(F)c1F (stereo not shown) [Mixture of compounds 25-1a and 25-1b],> 10.00
14,COc1c(C2C(C(=O)Nc3ccc(F)c(S(C)(=O)=O)c3)SC(C)(C(F)(F)F)C2C)ccc(F)c1F (stereo not shown) [Mixture of compounds 26-1a and 26-1b],> 9.00
15,COc1c([C@H]2[C@H](C(=O)Nc3cccc(C(N)=O)c3)S[C@@](C)(C(F)(F)F)[C@H]2C)ccc(F)c1F [Mixture of compounds 28-2a and 28-2b],> 10.00
16,COc1cc(F)ccc1C1C(C(=O)Nc2ccnc(C(N)=O)c2)SC(C)(C(F)(F)F)C1C (stereo not shown) [Mixture of compounds 34-1a and 34-1b],> 9.00
17,[2H]C([2H])([2H])Oc1c([C@H]2[C@H](C(=O)Nc3ccnc(C(N)=O)c3)S[C@@](C)(C(F)(F)F)[C@H]2C)ccc(F)c1F [Mixture of compounds 35-8a and 35-8b],> 10.00
18,COc1c(C2C(C(=O)Nc3cc[nH]c(=O)c3)SC(C)(C(F)(F)F)C2C)ccc(F)c1F (stereo not shown) [Mixture of compounds 36-2a and 36-2b],> 10.00
19,CC1C(c2ccc(F)c3c2CCC3)C(C(=O)Nc2cccc(C(N)=O)c2)SC1(C)C(F)(F)F (stereo not shown) [Mixture of compounds 37-1a and 37-1b],> 9.00
20,C[C@H]1[C@@H](c2ccc(F)c3c2OCC3(C)C)[C@H](C(=O)Nc2ccnc(C(N)=O)c2)S[C@@]1(C)C(F)(F)F [Mixture of compounds 76-8a and 76-8b],> 9.00
21,COc1c([C@H]2[C@H](C(=O)Nc3ccnc(P(C)(C)=O)c3)S[C@@](C)(C(F)(F)F)[C@H]2C)ccc(F)c1F [Trifluoroacetate of compound 58],> 9.00

# — patent US20260216157A1, “TETRAHYDROTHIOPHENE DERIVATIVE AND USE THEREOF IN MEDICINE” (Haisco Pharmaceutical Group Co., Ltd., priority 2023, published 2026)
